# Test results taken from patent publication US4038395A, “Compositions of and method of treating with the alpha-isomer of 2-chloro-9-[3'-(N'-2-hydroxyethylpiperazino-N)-propylidene]-thiaxanthene , carboxylic acid esters thereof and acid addition salts of these compounds” (Kefalas A/S, priority 1973, dated 1977).
# Structures can show the parent of a compound that is named as a salt. Where two headings read alike, the source gives them in different places.
# Experiments:
# [1] = system: methylphenidate-induced stereotyped gnawing; test: Methylphenidate antagonism in mice (stereotyped gnawing); format: in vivo, male mice (NMRI/BOM SPF)
# Source text: (§1) Alpha-clopenthixol and its decanoic acid ester have been tested for neuroleptic activity with standard reliable test methods. In the testing alpha- and beta-clopenthixol (alpha-CPT and beta-CPT) have been compared with a sample of clopenthixol (CPT) containing 34% alpha-CPT as determined by I.R. spectrophotometry.
# Pedersen V. and A. V. Christensen: "Antagonism of methylphenidate-induced stereotyped gnawing in mice". Acta pharmacol. et toxicol. 1972, 31, 488-496.
# Male mice (NMRI/BOM SPF, 18-25 g) were given an intraperitoneal dose of test compound. Two hours later 60 mg/kg of methylphenidate hydrochloride were injected subcutaneously, and immediately thereafter the animals were placed in cages, 2 mice in each cage, for 1 hour. The cages which during the experiment were placed on corrugated paper, are described under apomorphine antagonism on page 4. In this situation control mice, when given this dose of methylphenidate, will bite the corrugated paper (gnaw-compulsion). All compounds were tested at 5 dose levels using 5 pairs of mice per dose. Percentage non-biters was plotted on log.-probit paper against dose and approximate ED50 values were read from the diagrams.
# mice = test: Acute toxicity upon intravenous injection in mice; format: in vivo, male mice (NMRI/BOM SPF); settings: i.v.; for LD50: fasted 24 hours
# Description: (§2) Acute toxicity upon intravenous injection has been tested using groups of five male mice (NMRI/BOM SPF, 18-25 g), fasted for 24 hours. Three or four dose-levels were needed to determine LD50 values according to Miller and Tainter. Estimation of the ED50 and its error by means of logarithmicprobit graph paper.
# [2] = system: apomorphine-induced gnaw-compulsion; test: Apomorphine antagonism in rats (gnaw-compulsion); format: in vivo, male rats (Wistar/Af/Han/Mo)(Han 67) SPF; settings: for ED50: apomorphine 10 mg/kg s.c. 2 h later
# Source text: as §1
# The test method used is a slight modification of the test described by Janssen, P.A.J., Niemegeers, C.J.E. and Schellekens, K.H.L., Arzneimittel-Forschung, 1965, 15, 104-117. Male rats (Wistar/Af/Han/Mo)(Han 67) SPF, 230-270 g) were given test substance intraperitoneally (9 animals per group). Two hours later apomorphine (10 mg/kg) was injected subcutaneously and the animals were placed in individual cages for one hour. A cage consisted of a 30 cm high perspex box (12 × 25 cm), without bottom and lid, which during the experiment was placed on corrugated paper. […] Percentage non-biters was plotted on log-probit paper against dose and the ED50 was read from the diagram.
# [3] = Acute toxicity upon intravenous injection in mice; format: in vivo, male mice (NMRI/BOM SPF); settings: mouse, in vivo, iv, fasted 24 hours
# Description: as §2
# [4] = system: apomorphine-induced vomiting in dogs; test: Apomorphine antagonism in dogs (vomiting); format: in vivo, Adult purebred Beagles
# Description: Adult purebred Beagles of either sex from our own stock were used.
# Four dogs were used for each dose level of the drug, which was injected subcutaneously at the back of the neck. At different times after the drug administration the dogs were then challenged with apomorphine according to an "up and down"-schedule using the dose-range 25-400 μg/kg i.v. geometrically spaced. […] In this way it was possible to estimate at which level of apomorphine the dogs were protected at a given time. The dogs were fed half an hour before testing to secure an easy vomiting act.
# human beings = test: Administration to human beings (neuroleptic action); format: in vivo; settings: single intramuscular injection of about 20 - 100 mg in a light vegetable oil
# Source text: Alpha-clopenthixol or an ester thereof and the non-toxic acid addition salts thereof (in the following collectively called "active ingredients") may be administered to animals such as dogs, cats, horses, sheeps or the like, including human beings, both orally and parenterally, and may be used for example in the form of tablets, capsules, powders, syrups or in the form of the usual sterile solutions for injection. Results upon administration to human beings have been very gratifying.
# Results upon administration to human beings of the compositions of the invention have been very gratifying. Preferably, however, the compositions are in the form of sterile solutions or suspensions for injection, and in a preferred embodiment of the invention injectable solutions may be prepared from a non-toxic injectable fat or oil, e.g. light vegetable oil, sesam oil, olive oil, arachis oil or ethyl oleate, and they may additionally contain gelling agents, e.g. aluminium stearate, to delay absorption within the body. Such oily solutions have a very prolonged activity when […] intramuscularly, and satisfactory neuroleptic action has been produced by a single intramuscular injection of about 20 - 100 mg of Lu 8- 008 dissolved in a light vegetable oil for as long as 2-4 weeks.
# [5] = dogs, 10 mg/kg s.c., aqueous solution
# [6] = dogs, 10 mg/kg s.c., depot-preparation
# [7] = dogs, both dose levels (10 and 20 mg/kg s.c.)
structure (smiles),measurement,setting,value
OCCN1CCN(CCC=C2c3ccccc3Sc3ccc(Cl)cc32)CC1 [beta-CPT 2 HCl],% Non-biters,"[1]; 5 mg/kg i.p., 5 mg/kg",60%
same,% Non-biters,[1]; 10 mg/kg i.p.,20%
same,% Non-biters,[1]; 20 mg/kg i.p.,100%
same,% Non-biters,[1]; 40 mg/kg i.p.,80%
same,% Non-biters,[1]; 80 mg/kg i.p.,80%
same,LD50,mice,134 ± 10 mg/kg i.v.
same,% Non-biters,"[2]; 10 mg/kg i.p., 10 mg/kg",11%
same,% Non-biters,[2]; 20 mg/kg i.p.,0%
same,% Non-biters,[2]; 40 mg/kg i.p.,11%
same,% Non-biters,[2]; 80 mg/kg i.p.,11%
same,ED50,[2]; i.p.,none
"OCCN1CCN(CCC=C2c3ccccc3Sc3ccc(Cl)cc32)CC1 [alpha-CPT 2 HCl, alpha-isomer of 2-chloro-9-[3'-(N'-2-hydroxyethylpiperazino-N)-propylidene]-thiaxanthene]",% Non-biters,[1]; 0.31 mg/kg i.p.,20%
same,% Non-biters,[1]; 0.63 mg/kg i.p.,60%
same,% Non-biters,[1]; 1.25 mg/kg i.p.,60%
same,% Non-biters,[1]; 2.5 mg/kg i.p.,100%
same,% Non-biters,"[1]; 5 mg/kg i.p., 5 mg/kg",100%
same,ED50,"[1]; Mus musculus, ip, methylphenidate hydrochloride 60 mg/kg s.c. 2 h later, read-out: ED50 (approximate)",0.65 mg/kg
same,LD50,[3],105 ± 10 mg/kg
same,% Non-biters,[2]; 1.25 mg/kg i.p.,11%
same,% Non-biters,[2]; 2.5 mg/kg i.p.,44%
same,% Non-biters,[2]; 5 mg/kg i.p.,100%
same,% Non-biters,"[2]; 10 mg/kg i.p., 10 mg/kg",100%
same,ED50,"[2]; Rattus norvegicus, ip, read-out: ED50",2.4 mg/kg
"OCCN1CCN(CCC=C2c3ccccc3Sc3ccc(Cl)cc32)CC1 [beta-CPT, beta-isomer of 2-chloro-9-[3'-(N'-2-hydroxyethylpiperazino-N)-propylidene]-thiaxanthene]","inhibition of methylphenidate-induced compulsive gnawing, in words",[1]; 20 mg/kg i.p.,complete inhibition
same,"inhibition of methylphenidate-induced compulsive gnawing, in words",[1]; doses higher and lower than 20 mg/kg i.p.,only partial inhibition
same,"acute toxicity compared, in words",mice; vs alpha-isomer and the mixture,somewhat less toxic than the alpha-isomer and the mixture
same,"apomorphine antagonism, in words",[2]; doses as high as 80 mg/kg i.p.,almost completely inactive
"Cl.Cl.OCCN1CCN(CCC=C2c3ccccc3Sc3ccc(Cl)cc32)CC1 [CPT 2 HCl, 2-chloro-9-[3'-(N'-2-hydroxyethylpiperazino-N)-propylidene]-thiaxanthene]",duration of protection against apomorphine,"[4]; dogs, 10 mg/kg s.c.",3 days
same,duration of heavy sedation,[4]; [5],about 24 hours
same,time p.i. at which maximal protection against apomorphine was afforded,[4]; [5],4 h
same,maximal level of protection against apomorphine (times threshold),"[4]; dogs, 10 mg/kg s.c., aqueous solution, 4 hours p.i.",about 16 times threshold
same,protection against apomorphine at day 3,"[4]; dogs, 10 mg/kg s.c., aqueous solution, day 3",restricted to the threshold dose of apomorphine
same,protection against apomorphine at day 4,"[4]; dogs, 10 mg/kg s.c., aqueous solution, day 4",returned to control level
same,sedation,"[4]; dogs, 10 mg/kg s.c., aqueous solution, from 4 h p.i.",heavily sedated
same,% Non-biters,[1]; 0.63 mg/kg i.p.,20%
same,% Non-biters,[1]; 1.25 mg/kg i.p.,60%
same,% Non-biters,[1]; 2.5 mg/kg i.p.,80%
same,% Non-biters,[1]; 5 mg/kg i.p.,100%
same,% Non-biters,[1]; 10 mg/kg i.p.,100%
same,ED50 (approximate),"[1]; i.p., methylphenidate hydrochloride 60 mg/kg s.c. 2 h later",1.2 mg/kg i.p.
same,LD50,mice,111 ± 10 mg/kg i.v.
same,% Non-biters,[2]; 2.5 mg/kg i.p.,33%
same,% Non-biters,[2]; 5 mg/kg i.p.,44%
same,% Non-biters,[2]; 10 mg/kg i.p.,67%
same,% Non-biters,[2]; 20 mg/kg i.p.,78%
same,ED50,[2]; i.p.,5.5 mg/kg i.p.
"OCCN1CCN(CCC=C2c3ccccc3Sc3ccc(Cl)cc32)CC1 [alpha-CPT, alpha-isomer of 2-chloro-9-[3'-(N'-2-hydroxyethylpiperazino-N)-propylidene]-thiaxanthene]",activity relative to CPT,"[1]; i.p., vs CPT (containing 34% alpha-CPT)",about twice as active as CPT
same,activity relative to CPT (times more active),"[2]; i.p., vs CPT",2- 3 times
CN1CCc2cccc3c2[C@H]1Cc1ccc(O)c(O)c1-3 [apomorphine],minimal effective dose,"[4]; Canis lupus familiaris, iv, Beagle dogs, read-out: threshold-dose of apomorphine for provoking vomiting",0.025 mg/kg
"CCCCCCCCCC(=O)OCCN1CCN(CCC=C2c3ccccc3Sc3ccc(Cl)cc32)CC1 [Lu 8-008, alpha-isomer of the decanoic acid ester of 2-chloro-9-[3'(N'-2-hydroxyethylpiperazino-N)-propylidene]-thiaxanthene]",duration of protection against apomorphine,"[4]; dogs, 10 mg/kg s.c.",14 days
same,maximal level of protection (times threshold dose of apomorphine),"[4]; dogs, 10 mg/kg s.c., 5% solution",2 times threshold
same,maximal level of protection (times threshold dose of apomorphine),"[4]; dogs, 10 mg/kg s.c., 10% solution",4 times threshold
same,sedation,[4]; [6],at no time displayed any signs of sedation
same,time course of protection level,[4]; [6],"reached smoothly during the first week p.i., and then declined smoothly during the second week"
same,"prolongation of the protection against apomorphine, in words","[4]; dogs, 10 mg/kg s.c., depot-preparation, 5% or 10% solution",considerable prolongation of the protection against apomorphine
same,duration of protection against apomorphine,"[4]; dogs, 20 mg/kg s.c., depot-preparation",3 weeks
same,maximal level of protection (times threshold),"[4]; dogs, 20 mg/kg s.c., during the first week",8 times threshold
same,sedation,"[4]; dogs, 20 mg/kg s.c., first week",slightly sedated
same,"duration of protection, 10% solution compared with 5% solution",[4]; [7],the duration was equal
same,"maximal protection, 10% solution compared with 5% solution",[4]; [7],higher and/or more persisting maximal protection against apomorphine
same,duration of satisfactory neuroleptic action,human beings,2-4 weeks
